From patent publication US12410124B2 (priority 2019, dated 2025)
Read-outs that look alike come from different tables or passages of the source.

Assays:
primary glial cells = assay: Inhibition of the NO release of primary glial cells induced by LPS; format: cell-based, rat
Excerpt: Lipopolysaccharide (LPS) is a main component of the cell wall of Gram-negative bacteria. It is a potent inflammatory factor that can directly activate gliocytes, and the activated gliocytes secrete a large amount of inflammation mediators such as tumor necrosis factor, interleukin, and nitric oxide, thus causing inflammatory reactions and oxidative stress reactions and eventually leading to neuronal denaturation and death. In recent years, the targeted injection of LPS into rat substantia nigra or striatum to induce neuroinflammation can successfully establish PD models, which can simulate most of the clinical manifestations and pathological features of PD, and are used for the study on the neuroinflammation mechanism associated with PD. LPS-induced primary glial cell PD inflammation model is suitable for the preliminary anti-neuroinflammation screening for neuroprotective agents. LPS is used to directly activate primary glial cells to simulate the pathogenesis mechanism of neuroinflammation, and the inhibitory activity of the target compounds on the inflammatory response of primary glial cells can be investigated.
The materials were taken from the brain tissue of fetal rat, for primary glial cell culture. At 7 to 10 days of the culture, LPS was added for the activation of nitric oxide (NO) release in glial cells. When a target compound was added, the reduction value for NO content in the cell culture medium was measured, to evaluate the anti-neuroinflammation activity of the compound. The experiment included blank control group, LPS model group, positive control group (caffeic acid phenethyl ester, CAPE), prototype control group (styryl sulfone compounds 3B, 3C, 3D, and 3G, the structures of which compounds are shown as above), and target compound group.

midbrain TH = assay: Midbrain TH expression in MPTP Parkinson's disease model mouse (western-blotting); format: in vivo; details: midbrain total protein, GAPDH internal reference, gavage 21 days after MPTP modeling
Procedure: (§1) Neurotoxins can be used to establish PD animal models. Currently, 1-methyl-4-phenyl-1,2,3,6-tetrahydropyridine (MPTP) is the sole synthetic toxin which is recognized to induce PD symptoms in human and non-human primates and in mice. Using MPTP subacute modeling method, C57BL/6J male mice were intraperitoneally injected with MPTP 30 mg/kg, once a day for 5 consecutive days. The experiment animals were divided into blank control group, MPTP model group, and compound treatment group. For the […] compound treatment group, the compound was administrated by gavage for 21 consecutive days after the completion of modeling; for the MPTP model group, the normal saline was administrated by gavage for 21 consecutive days after the completion of modeling; and for the blank control group, the normal saline was first intraperitoneally injected for 5 days, and then administrated by gavage for 21 days.
The main cause of PD lies in the pathological changes in the substantia nigra-striatum projection system of the brain and the progressive degeneration and loss of dopaminergic neurons. Tyrosine hydroxylase (TH) is the first enzyme in the biosynthesis of catecholamine neurotransmitters, as well as the first rate-limiting enzyme in the dopamine synthesis. It plays an important role in the synthesis and metabolism of the neurotransmitter DA. The TH in PD animal models and patients has a wide range of abnormal changes, from the gene expression to the enzyme protein content and enzyme activity. The detection of the TH expression in the midbrain and substantia nigra of PD model mice can be used to evaluate the neuroprotective activity of the compound.
Half of experiment mice in each group were taken to extract the total midbrain protein, and the change in the midbrain TH was determined by western-blotting using GAPDH as the internal reference. The experiment included blank control group, MPTP model group, positive control group (caffeic acid phenethyl ester, CAPE), prototype control group (styryl sulfone compounds 3B, 3C, 3D, and 3G, whose structures are shown as above), and target compound group.

midbrain CD11b = assay: Midbrain CD11b protein expression in MPTP Parkinson's disease model mouse (western-blotting); format: in vivo; details: for Expression (CD11b/GAPDH): midbrain, MPTP Parkinson's disease model mouse, western-blotting
Procedure: as §1
(§2) Neuron-glial cell network homeostasis disorder is an important factor for the selective and progressive death of substantia nigra dopaminergic neurons in PD. In the neurotoxic effect of MPTP, the excessive activations of microglial cells and astrocytes produce a variety of inflammatory cytokines and reactive oxygen species (ROS). These inflammatory factors and ROS amplify their respective toxicities and mediate malignant feedback loop, causing a cascade inflammation response and aggravating the pathological process of PD. CD11b and GFAP are the marker proteins for activations of microglial cells and astrocytes, respectively. Therefore, the effect of the target compounds on the activations of the microglial cells and astrocytes in the substantia nigra, hippocampus, and midbrain areas of MPTP-induced PD mice can be investigated, to explore the mechanism of the anti-PD effect of the target compounds by inhibiting the neuroinflammation.
[…] The experiment included blank control group, MPTP model group, positive control group (caffeic acid phenethyl ester, CAPE), prototype control group (styryl sulfone compounds 3B, 3C, 3D), and 3G, whose structures are shown as above), and target compound group.

hippocampus CD11b = assay: Number of hippocampus microglial cells with CD11b positive expression in MPTP Parkinson's disease model mouse (immunohistochemistry); format: in vivo; details: for Positive cell number (microglial cells with CD11b positive expression): hippocampus, MPTP Parkinson's disease model mouse, immunohistochemistry
Procedure: as §1, §2
Half of experiment mice in each group were taken to separate the midbrain after perfusion and fixation. The tissue was trimmed, and the hippocampus area was taken to prepare paraffin sections. The CD11b immunohistochemical staining was performed for the statistics of the change in the number of microglial cells with CD11b positive expression. The experiment included blank control group, MPTP model group, positive control group (caffeic acid phenethyl ester, CAPE), prototype control group (styryl sulfone compounds 3B, 3C, 3D, and 3G, whose structures are shown as above), and target compound group.

substantia nigra GFAP = assay: Number of substantia nigra astrocytes with GFAP positive expression in MPTP Parkinson's disease model mouse (immunohistochemistry); format: in vivo; details: for Positive cell number (astrocytes with GFAP positive expression): substantia nigra, MPTP Parkinson's disease model mouse, immunohistochemistry
Procedure: as §1, §2
Half of experiment mice in each group were taken to separate the midbrain after perfusion and fixation. The tissue was trimmed, and the substantia nigra area was taken to prepare paraffin sections. The GFAP immunohistochemical staining was performed for the statistics of the change in the number of astrocytes with GFAP positive expression. The experiment included blank control group, MPTP model group, positive control group (caffeic acid phenethyl ester, CAPE), prototype control group (styryl sulfone compounds 3B, 3C, 3D, and 3G, whose structures are shown as above), and target compound group.

HO-1 = assay: Midbrain HO-1 expression in MPTP Parkinson's disease model mouse (western blot); format: in vivo; details: for Expression (HO-1/GAPDH): midbrain, MPTP Parkinson's disease model mouse, western blot
Procedure: as §1
Oxidative stress is an important pathogenic mechanism of PD. Dopaminergic neurons are more sensitive to oxidative stress and are more susceptible to oxidative stress damage. Heme oxygenase (HO-1), a phase II enzyme, is also a well-known antioxidase. It plays an important protective role by catalyzing the conversion of free radicals into non-toxic products and increasing their water solubility to facilitate the elimination of free radicals, and maintain the redox balance in the body. It plays an important role in the process of protecting cells against oxidative stress damage. The activation of p38 protein phosphorylation has a negative regulatory effect on phase II enzymes. […] Using HO-1 as an indicator, the inhibitory effect of the target compounds on MPTP-induced oxidative stress damage in PD mice can be investigated.
HO-1 is expressed in astrocytes, microglial cells, and neurons. The total proteins of the midbrain tissue of mice in each experiment group were extracted, to determine the expression of phase II enzyme HO-1 in the midbrain of mice by western blot using GAPDH as the internal reference. The experiment included blank control group, MPTP model group, positive control group (caffeic acid phenethyl ester, CAPE), prototype control group (styryl sulfone compounds 3B, 3C, 3D, and 3G, whose structures are shown as above), and target compound group.

[1] = Rattus norvegicus, Glial cell, 5 μM, read-out: NO inhibition (%)
[2] = Rattus norvegicus, Glial cell, 10 μM, read-out: NO inhibition (%)
[3] = Rattus norvegicus, Glial cell, 20 μM, read-out: NO inhibition (%)
[4] = Rattus norvegicus, Glial cell, read-out: NO inhibition (%)

Compound	inhibition at 5 µM (primary glial cells; [1]) [%]	inhibition at 10 µM (primary glial cells; [2]) [%]	inhibition at 20 µM (primary glial cells; [3]) [%]	Expression (TH/GAPDH) (midbrain TH)	Expression (CD11b/GAPDH) (midbrain CD11b)	Positive cell number (microglial cells with CD11b positive expression) (hippocampus CD11b)	Positive cell number (astrocytes with GFAP positive expression) (substantia nigra GFAP)	Expression (HO-1/GAPDH) (HO-1)	inhibition at 2 µM (primary glial cells; Rattus norvegicus, Glial cell, 2 μM, read-out: NO inhibition (%)) [%]	inhibition at 5 µM (primary glial cells; [4]) [%]	inhibition at 10 µM (primary glial cells; [4]) [%]	inhibition at 20 µM (primary glial cells; [4]) [%]	NO inhibitory rate compared with the styryl sulfone prototype compounds (primary glial cells)	midbrain CD11b protein expression compared with the styryl sulfone prototype compounds (midbrain CD11b)	number of hippocampus microglial cells with CD11b positive expression compared with the styryl sulfone prototype compounds (hippocampus CD11b)	number of substantia nigra astrocytes with GFAP positive expression compared with the styryl sulfone prototype compounds (substantia nigra GFAP)	midbrain HO-1 expression compared with the styryl sulfone prototype compounds (HO-1)
O=S(=O)(/C=C/c1ccc(O)c(O)c1)Cc1ccc(C(F)(F)F)cc1 [Compound 3B, (E)-4-{2-[(4-trifluoromethylphenyl)mesyl]ethenyl}benzene-1,2-diol, reference compound]	17.2 ± 4.56	38.6 ± 2.13	92 ± 3.01	0.53 ± 0.03	1.31 ± 0.10	16 ± 2	121 ± 10	0.56 ± 0.03	–	–	–	–	–	–	–	–	–
O=S(=O)(/C=C/c1ccc(O)c(O)c1)CCCc1ccccc1 [Compound 3C, (E)-4-{2-[(3-phenylpropyl)sulfonyl]ethenyl}benzene-1,2-diol, reference compound]	9.24 ± 4.88	24.6 ± 3.09	45.8 ± 5.25	0.63 ± 0.03	1.02 ± 0.13	20 ± 3	121 ± 13	0.44 ± 0.05	–	–	–	–	–	–	–	–	–
O=S(=O)(/C=C/c1ccc(O)c(O)c1)Cc1ccc(Cl)cc1 [Compound 3D, (E)-4-{2-[(4-chlorophenyl)mesyl]ethenyl}benzene-1,2-diol, reference compound]	34.6 ± 4.89	74.7 ± 3.32	–	0.93 ± 0.06	1.30 ± 0.10	18 ± 3	110 ± 9	1.03 ± 0.20	23.5 ± 8.05	–	–	–	–	–	–	–	–
CC(C)(C)c1ccc(CS(=O)(=O)/C=C/c2ccc(O)c(O)c2)cc1 [Compound 3G, (E)-4-{2-[(4-t-butylphenyl)mesyl]ethenyl}benzene-1,2-diol, reference compound]	41.2 ± 3.01	59.6 ± 2.44	85.8 ± 3.88	0.45 ± 0.05	0.67 ± 0.12	18 ± 3	130 ± 6	0.51 ± 0.07	–	–	–	–	–	–	–	–	–
CC(C)N(c1ccc(CCS(=O)(=O)/C=C/c2ccc(OC(=O)N(C)c3ccc(I)cc3)c(OCCOCc3ccccc3)c2)cc1)C(C)C [Compound A1-3, (E)-2-(2-benzyloxyethoxy)-4-{2-[4-(N,N-diisopropylamino)phenylethylsulfonyl]ethenyl}phenyl-N-(4-iodophenyl)-N-methylcarbamate]	–	–	–	0.93 ± 0.07	1.12 ± 0.06	14 ± 2	105 ± 6	0.66 ± 0.05	–	19.6 ± 3.67	43.2 ± 2.36	62.1 ± 4.73	–	–	–	–	–
CCN(CC)C(=O)Oc1ccc(/C=C/S(=O)(=O)Cc2ccc(C(F)(F)F)cc2)cc1OC(=O)N(CC)CC [Compound B1-1, (E)-4-{2-[(4-trifluoromethylphenyl)mesyl]ethenyl}-1,2-phenylenebis(diethylcarbamate)]	21.6 ± 2.18	42.8 ± 3.56	97.7 ± 2.04	0.92 ± 0.02	0.41 ± 0.05	9 ± 2	88 ± 5	0.90 ± 0.10	–	–	–	–	equivalent or higher inhibitory rate	equivalent or lower	significantly lower	significantly lower	significantly higher
